Where two headings read alike, the source gives them in different places.
Assay: Pharmacokinetic study GW01-0706 under maximal use conditions (serum imiquimod)
Type: in vivo, human
Experimental: An open label, single center, non-randomized pharmacokinetic (PK) study in adult subjects diagnosed with actinic keratosis (“AK”) is conducted. […] The study is conducted under maximal use conditions (dose, duration, disease severity, and application areas) in a population that had at least 10 AK lesions in the application area. The application area is the entire face (exclusive of nares, vermilion, periocular areas and ears) and/or the entire balding scalp; areas estimated as approximately 200 cm^2. If the area of the entire balding scalp is less than 200 cm^2, the forehead area is included in order for the entire treatment area to be approximately 200 cm^2.
Subjects stay at the study center overnight at treatment initiation (Day 1, 1st dose), and end of treatment (Day 21, last dose) visits for collection of a 24-hour serum PK profile. […] Single serum samples for PK analyses of trough concentrations are obtained at Day 7 and Day 14 (in the morning prior to dosing).
Adverse events, study medication accountability, and dosing compliance are reviewed at each visit. Routine clinical laboratory assessments (serum chemistry, hematology and urinalysis) are performed at Screening, Day 1 (predose), and the end of study visits.
Trough serum concentrations are obtained on Days 7, 14, 21, and 22. The trough concentrations on Days 7 and 14 are obtained during outpatient treatment while the trough concentrations on Days 21 and 22 are obtained while the subjects are dosed in the clinical research facility.

[1] = Steady-State (Day 21), 3.75% imiquimod cream 2 packets daily

Imiquimod trough concentration, Geometric LS Mean Reference (Day 21/14 comparison (Reference = Day 14), subjects with paired, non-zero data, 3.75% imiquimod cream 2 packets daily): 0.1344 ng/mL
Imiquimod trough concentration, Geometric LS Mean Test (Day 21/14 comparison (Test = Day 21), subjects with paired, non-zero data, 3.75% imiquimod cream 2 packets daily): 0.1791 ng/mL
λz, Geometric Mean [1]: 0.027 h⁻¹
λz, Mean [1]: 0.029 h⁻¹
λz, Median [1]: 0.0271 h⁻¹
concentration at 7 day (trough) (human, topical): 0.128 ng/mL
concentration at 14 day (trough) (human, topical): 0.139 ng/mL
concentration at 21 day (trough) (human, topical): 0.179 ng/mL
concentration at 22 day (trough) (human, topical): 0.167 ng/mL
AUC(0-t) (human, topical, Steady-State (Day 21), 3.75% imiquimod cream 2 packets daily, read-out: AUC0-24, Geometric Mean): 5.03 ng·h/mL
AUC(0-t) (human, topical, Steady-State (Day 21), 3.75% imiquimod cream 2 packets daily, read-out: AUC0-24, Mean): 5.97 ng·h/mL
AUC(0-t) (human, topical, Steady-State (Day 21), 3.75% imiquimod cream 2 packets daily, read-out: AUC0-24, Median): 7.02 ng·h/mL
Cmax (human, topical, Steady-State (Day 21), 3.75% imiquimod cream 2 packets daily, read-out: Cmax, Geometric Mean): 0.274 ng/mL
Cmax (human, topical, Steady-State (Day 21), 3.75% imiquimod cream 2 packets daily, read-out: Cmax, Mean): 0.323 ng/mL
Cmax (human, topical, Steady-State (Day 21), 3.75% imiquimod cream 2 packets daily, read-out: Cmax, Median): 0.35 ng/mL
SMILES: CC(C)Cn1cnc2c(N)nc3ccccc3c21 [imiquimod, 1-isobutyl-1H-imidazo[4,5-c]-quinolin-4-amine]
